Assay results from patent US9975922B2, “Peptide inhibitor of HIV reverse transcription” (priority 2013, dated 2018).
Where a SMILES comes first, the peptide text is derived from it.

Tests used:
[1] = system: modified hASL^Lys3UUU; experiment: initial validation screen, change in peptide fluorescence on addition of ASL; type: binding, human; conditions: 2-fold excess of modified hASL^Lys3UUU; result in words
Procedure: (§1) An initial fluorescent signal (FS0) of peptide alone ([…]) was obtained. Then, a 2-fold excess of ASL was added to each peptide and the fluorescent signal (FS1) was monitored. The percent change (100*(FS1/FS0)) is graphed for each of the assayed peptides. Dark gray bars represent the percent change in fluorescence in the presence of the modified hASL^Lys3UUU and light gray bars represent the percent change in the presence of the unmodified hASL^Lys3UUU.
(§2) Sequences predicted during the in silico optimizations to have the lowest binding energies and thus, potentially higher affinity for modified hASL^Lys3, were selected for validation with a fluorescence assay (9). Fifteen peptides (Table 3) were chemically synthesized with fluorescein at the N-terminus to allow for very sensitive, low volume detection of peptide-RNA binding interactions. P1 and P6 from phage display selections (9), the initially evolved sequences, P26 and P27, and the best binders from each of the Cases 1, 2 and 3 were synthesized. Variants of these sequences that had one or two amino acid changes were also synthesized (Table 3). During the initial validation assay, changes in the amount of fluorescence were monitored to determine whether the peptide was binding to the modified and/or unmodified hASLLys3UUU and to what relative degree (FIG. 12). In this screening assay, P6 behaved as expected. […] Other peptides behaved similarly.
(§3) Fifteen-amino acid peptides were selected from the sequences predicted in silico and were chemically synthesized, each with fluorescein (Flc) at the N-terminus. This set of peptides included the original P1 and P6 sequences to be used as an internal control. […] Concentrated peptide stocks were stored in 25 μl aliquots at […] for later use. Working concentrations were diluted for each experiment and kept on ice or stored at −20° C.
(§4) Fluorescent assays were conducted in phosphate buffer (10 mM Na2HPO4 and 10 mM KH2PO4, pH 6.8) in low volume 384 well plates. All buffers, peptides, and RNA were pipetted into wells via a liquid handling robot (Janus, PerkinElmer). All plates were read using a plate reader fitted with fluorescein specific filters (PerkinElmer EnVision) which was optimized for each plate and peptide before each experiment. Initial validation screens were conducted by obtaining fluorescent signals for each peptide (0.50 μM) alone (FS0) and in the presence of a 2-fold excess of modified or unmodified hASLLys3UUU (FS1). Percent change in fluorescent signal was calculated (% Change=100*(FS1/FS0)). A decrease (quench) in fluorescent signal in the presence of RNA indicated a binding event between the peptide and ASL. In control wells H2O, phosphate buffer, and ASLs were individually tested for any inherent fluorescent signal. Water and buffer signals served as blank background signals. […] All controls and experimental sets were repeated in triplicate within a single plate and signals are an average of each triplicate. For the subset of peptides which were further studied to obtained binding constants, the fluorescent binding assay was completed as above. The peptide fluorescent signal was monitored throughout an increasing ASL concentration (0-3 μM). The percent quench in signal was plotted against the hASL concentration. Binding constants (Kd) were calculated using the single linear regression function within SigmaPlot. Experiments were performed in triplicate within a single plate and fluorescent signals are an average of each triplicate.

[2] = biological target: unmodified hASL^Lys3UUU; experiment: fluorescent binding assay of fluorescein-labeled peptides, binding constants; design: species or system human; conditions: N-terminal fluorescein peptide, phosphate buffer pH 6.8, ASL 0-3 μM
Procedure: as §3, §4

[3] = biological target: modified hASL^Lys3UUU; experiment: as above; design: species or system human; conditions: for Kd: Modified hASL^Lys3UUU, N-terminal fluorescein peptide, phosphate buffer pH 6.8, ASL 0-3 μM; for affinity relative to P6: from Kd values, compared with P6
Procedure: as §3, §4

[4] = system: unmodified hASL^Lys3UUU; experiment: initial validation screen, change in peptide fluorescence on addition of ASL; type: binding, human; conditions: 2-fold excess of unmodified hASL^Lys3UUU; result in words
Procedure: as §1, §2, §3, §4

[5] = biological target: modified hASLLys3; conditions: cited from earlier work
[6] = biological target: unmodified ASL; conditions: NCp7, unmodified ASL; cited from earlier work
[7] = system: hypermodified ASL^Lys3; conditions: result in words; cited from earlier work
[8] = system: singly modified ASL^Lys3, AsL^Lys1, 2 and Escherichia coli ASL^Glu and ASL^Val; conditions: singly modified ASL^Lys3, ASL^Lys1,2, E. coli ASL^Glu and ASL^Val; result in words; cited from earlier work

**Q.** Which “change in fluorescent signal of peptide (binding, preference for modified ASL)” value (from here on “change … (binding, preference for modified ASL)”) [1] does the source give for `CC(C)C[C@H](NC(=O)[C@H](CO)NC(=O)[C@@H]1CCCN1C(=O)[C@H](Cc1ccccc1)NC(=O)[C@H](CO)NC(=O)[C@@H](NC(=O)[C@H](CO)NC(=O)[C@@H](N)Cc1ccccc1)C(C)C)C(=O)N1CCC[C@H]1C(=O)N[C@@H](C)C(=O)N1CCC[C@H]1C(=O)N1CCC[C@H]1C(=O)N[C@@H](CC(=O)O)C(=O)N[C@@H](CCCNC(=N)N)C(=O)N[C@@H](CO)C(=O)O` [Peptide P1, FSVSFPSLPAPPDRS, reference compound] (H-FSVSFPSLPAPPDRS-OH) here?
**A.** Its value is “increased the fluorescence either with the unmodified or modified hASL^Lys3UUU, but not both”.

**Q.** What about the Kd [2] of the same compound?
**A.** Its Kd is 150 ± 40 nM.

**Q.** What about the Kd [3] of the same compound?
**A.** Its Kd is 130 ± 20 nM.

**Q.** What about the “affinity relative to P6” value [3] of the same compound?
**A.** The value was “four fold”.

**Q.** With `CC(C)C[C@H](NC(=O)[C@H](Cc1ccccc1)NC(=O)[C@H](C)NC(=O)[C@H](Cc1c[nH]cn1)NC(=O)[C@H](Cc1c[nH]cn1)NC(=O)[C@@H](NC(=O)[C@@H](NC(=O)[C@@H](N)CCCNC(=N)N)C(C)C)[C@@H](C)O)C(=O)NCC(=O)N[C@@H](C)C(=O)N[C@@H](Cc1c[nH]cn1)C(=O)N[C@@H](CCCNC(=N)N)C(=O)N[C@H](C(=O)N[C@H](C(=O)NCC(=O)O)C(C)C)[C@@H](C)O` [Peptide P6, RVTHHAFLGAHRTVG, reference compound] (H-RVTHHAFLGAHRTVG-OH) as the compound, how does the “change … (binding, preference for modified ASL)” value [1] read?
**A.** Its value is “quenched more than when bound by the unmodified hASL^Lys3UUU”.

**Q.** What about the Kd [3] of the same compound?
**A.** Its Kd is 500 ± 100 nM.

**Q.** With `CSCC[C@H](NC(=O)[C@H](CCC(N)=O)NC(=O)[C@H](Cc1c[nH]c2ccccc12)NC(=O)[C@@H](N)CCCNC(=N)N)C(=O)N[C@H](C(=O)N[C@@H](C)C(=O)N[C@@H](Cc1ccccc1)C(=O)N[C@@H](C)C(=O)N[C@@H](Cc1c[nH]cn1)C(=O)NCC(=O)N[C@@H](Cc1c[nH]c2ccccc12)C(=O)N[C@@H](CCCNC(=N)N)C(=O)N[C@@H](Cc1c[nH]cn1)C(=O)N[C@@H](CO)C(=O)NCC(=O)O)[C@@H](C)O` [Peptide P27, RWQMTAFAHGWRHSG] (H-RWQMTAFAHGWRHSG-OH) as the compound, how does the “change in fluorescent signal of peptide” value [4] read?
**A.** Its value is “little or no change in fluorescence”.

**Q.** And the “change … (binding, preference for modified ASL)” value [1]?
**A.** Its value is “quenched to a greater degree in binding the modified hASL^Lys3UUU than was the fluorescence of P6”.

**Q.** And the Kd [3]?
**A.** Its Kd is 50 ± 20 nM.

**Q.** And the “affinity relative to P6” value [3]?
**A.** The value was 10 fold.

**Q.** With `CSCC[C@H](NC(=O)[C@H](CCCNC(=N)N)NC(=O)[C@H](Cc1c[nH]c2ccccc12)NC(=O)[C@H](CC(C)C)NC(=O)[C@@H]1CCCN1C(=O)[C@H](Cc1c[nH]cn1)NC(=O)[C@H](Cc1ccccc1)NC(=O)[C@H](CO)NC(=O)[C@H](Cc1c[nH]cn1)NC(=O)[C@H](Cc1c[nH]cn1)NC(=O)[C@H](CCC(N)=O)NC(=O)[C@H](Cc1c[nH]c2ccccc12)NC(=O)[C@@H](N)CCCNC(=N)N)C(=O)N[C@@H](CO)C(=O)NCC(=O)O` [Peptide P31, RWQHHSFHPLWRMSG] (H-RWQHHSFHPLWRMSG-OH) as the compound, how does the “change in fluorescent signal of peptide” value [4] read?
**A.** The value was “little or no change in fluorescence”.

**Q.** And the “change … (binding, preference for modified ASL)” value [1]?
**A.** Its value is “quenched to a greater degree in binding the modified hASL^Lys3UUU than was the fluorescence of P6”.

**Q.** And the Kd [3]?
**A.** Its Kd is 580 ± 240 nM.

**Q.** And the “affinity relative to P6” value [3]?
**A.** Its value is “equivalent to P6”.

**Q.** With “NCp7: HIV-1 nucleocapsid protein 7, binds and destabilizes htRNA^Lys3UUU (MQRGNFRNQRKIVKCFNCGKEGHTARNCRAPRKKGCWKCGKEGHQMKDCTERQAN; Nucleocapsid protein p7; UniProt P04591 378-432, looked up)” as the compound, how does the Kd ([5]; NCp7, modified hASLLys3) read?
**A.** The Kd was 280 ± 30 nM.

**Q.** What about the “increase of NCp7 affinity by the modifications” value ([5]; modified vs unmodified hASLLys3) of the same compound?
**A.** The value was roughly 10 fold.

**Q.** What about the Kd [6] of the same compound?
**A.** Its Kd is 2300 ± 620 nM.

**Q.** For RFQHSNWFSGWKVNG [Peptide P34], which “change … (binding, preference for modified ASL)” value [1] is on record?
**A.** The value was “increased the fluorescence either with the unmodified or modified hASL^Lys3UUU, but not both”.

**Q.** For RGVFSHPHTAVPSHN, which binding affinity [7] is on record?
**A.** The binding affinity was “relatively high binding affinity”.

**Q.** What about the binding [8] of the same compound?
**A.** The binding was “bound poorly”.

**Q.** With RHHHASFGPPWLSHG [Peptide P32] as the compound, how does the “change … (binding, preference for modified ASL)” value [1] read?
**A.** Its value is “significantly weaker affinities and a lack of specificity”.

**Q.** Which “change … (binding, preference for modified ASL)” value [1] does the source give for RHSHAHFGPPWLSHG [Peptide P33] here?
**A.** The value was “significantly weaker affinities and a lack of specificity”.

**Q.** Which “change … (binding, preference for modified ASL)” value [1] does the source give for RTLHHALFGAHQTVG [Peptide P26] here?
**A.** The value was “increased the fluorescence either with the unmodified or modified hASL^Lys3UUU, but not both”.

**Q.** With RWNGSQWFCAWRANG [Peptide P36] as the compound, how does the “change … (binding, preference for modified ASL)” value [1] read?
**A.** The value was “increased the fluorescence either with the unmodified or modified hASL^Lys3UUU, but not both”.

**Q.** With RWTHCQFWQGFRVNG [Peptide P38] as the compound, how does the “change … (binding, preference for modified ASL)” value [1] read?
**A.** Its value is “increased the fluorescence either with the unmodified or modified hASL^Lys3UUU, but not both”.
